The IC50 is the concentration at which inhibition is half-maximal. A high value points to weaker potency in that assay.

Bounds are passed on as bounds.

The source of these data is US20080194654A1, “HYDROXY-SUBSTITUTED ARYL SULFAMIDE DERIVATIVES AND METHODS OF THEIR USE” (Wyeth, priority 2006, published 2008).

The test has as its target hDAT (Homo sapiens, UniProt Q01959). Put plainly: Dopamine transporter (hDAT) membrane binding assay.

Sequence of hDAT (Q01959 whole entry): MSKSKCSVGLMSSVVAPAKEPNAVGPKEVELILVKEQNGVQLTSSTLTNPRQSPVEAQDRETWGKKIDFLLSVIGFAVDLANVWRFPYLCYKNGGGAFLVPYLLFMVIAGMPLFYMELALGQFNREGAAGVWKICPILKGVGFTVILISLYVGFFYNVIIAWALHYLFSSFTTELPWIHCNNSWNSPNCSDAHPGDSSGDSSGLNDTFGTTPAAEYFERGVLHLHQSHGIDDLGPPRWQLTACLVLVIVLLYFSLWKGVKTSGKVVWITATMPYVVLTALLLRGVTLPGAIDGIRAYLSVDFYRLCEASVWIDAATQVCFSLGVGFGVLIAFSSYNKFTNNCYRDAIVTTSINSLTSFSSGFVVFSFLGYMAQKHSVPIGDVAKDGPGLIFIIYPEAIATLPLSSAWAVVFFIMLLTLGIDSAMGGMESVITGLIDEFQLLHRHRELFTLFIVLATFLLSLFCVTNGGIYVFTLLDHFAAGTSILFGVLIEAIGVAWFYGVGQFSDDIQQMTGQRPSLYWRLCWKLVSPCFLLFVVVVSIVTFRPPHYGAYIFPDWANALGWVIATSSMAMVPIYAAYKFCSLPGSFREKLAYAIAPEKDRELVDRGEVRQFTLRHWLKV

For the compound `CCNC[C@@H](O)CCN1c2ccccc2N(c2ccccc2F)S1(=O)=O`, the IC50 was over 1000 nM.
